In publication PMC11676098, “New Benzofuran–Pyrazole-Based Compounds as Promising Antimicrobial Agents: Design, Synthesis, DNA Gyrase B Inhibition, and In Silico Studies” (Pharmaceuticals, 2024) one finds IC50 data, which are given here for 2 molecules.

For the assay, the target named is T1, E. coli DNA gyrase B (Escherichia coli, UniProt P0AES6).
T1 construct: gene gyrB
The assay is described as follows: in vitro E. coli DNA gyrase enzyme inhibition assay (manufacturer's protocol). It counts as biochemical.

Consider `N#Cc1c(-c2cn(-c3ccccc3)nc2-c2cc3ccccc3o2)c(C#N)c(=O)n2c1NCCN2` [compound 9, 8-(3-(Benzofuran-2-yl)-1-phenyl-1H-pyrazol-4-yl)-6-oxo-1,3,4,6-tetrahydro-2H-pyrido[1,2-b][1,2,4]triazine-7,9-dicarbonitrile], for which the IC50 amounted to 9.8 ± 0.21 µM.
`CC(=O)n1c(C)nc2c(C#N)c(-c3cn(-c4ccccc4)nc3-c3cc4ccccc4o3)c(C#N)c(=O)n21` [compound 10, 3-Acetyl-7-(3-(benzofuran-2-yl)-1-phenyl-1H-pyrazol-4-yl)-3,5-dihydro-2-methyl-5-oxo-[1,2,4]triazolo[1,5-a]pyridine-6,8-dicarbonitrile]: the midpoint of inhibition, the IC50, lay at 32.2 ± 0.1 µM.
